Like-named read-outs stand apart in the source and are kept apart here.
Tests used:
[1] = target: EGFR (Homo sapiens (Human), UniProt P00533); test: ErbB enzyme assay (CisBio HTRF KinEASE-TK), Assay 3; type: biochemical
Procedure: (§1) Compound potencies were determined using CisBio's HTRF Kinease-TK assay technology. The kinases were incubated with 250 nM TK-substrate biotin (CisBio, part of cat #62TK0PEC) at 1 mM ATP along with test compounds in a buffer consisting of 25 mM HEPES, pH 7.4, 10 mM MgCl2, 0.01% Triton X-100, and 2% DMSO in a volume of 8 μL. Compounds were prepared as a three-fold serial dilution in DMSO and added to the assay to give the appropriate final concentration. After 30-minute incubation at 22° C., the reaction was quenched by adding 8 μL of quench solution containing 62.5 nM Sa-XL665 and 0.25× TK-Ab-Cryptate in HTRF detection buffer (all from CisBio, part of cat #62TK0PEC). After a 1-hour incubation at 22° C., the extent of reaction was determined using a PerkinElmer EnVision multimode plate reader via HTRF dual wavelength detection, and the percent of control (POC) was calculated using a ratiometric emission factor. One hundred POC was determined using DMSO only samples (no compound present), and 0 POC was determined using pre-quenched control reactions. A 4-parameter logistic curve was fit to the POC values as a function of the concentration of compound, and the IC50 value was the point where the best-fit curve crossed 50 POC.
(§2) Enzyme lots and concentration used are in Table 2.

[2] = target: EGFR wild type (EGFR WT) (Homo sapiens (Human), UniProt P00533); test: Cellular phosphorylation assay, EGF-stimulated EGFR phosphorylation in engineered NIH 3T3 cells, Phospho-EGFR DuoSet IC ELISA, Assay 5; type: cell-based
Procedure: NIH 3T3 cells were engineered to express EGFR wild type (EGFR WT; Assay 5, no footnote) with constructs obtained from GenScript and grown in DMEM supplemented with 10% fetal bovine serum and 15 μg/ml blasticidin. Cells were plated in 96-well plates at 20,000 cells/well and allowed to attach overnight at 37° C./5% CO2. Serially diluted compounds were added to the plates for 1 hour at 37° C./5% CO2. EGFR WT cells were stimulated with 100 ng/ml rEGF for an additional 10 minutes at 37° C./5% CO2. After compound incubation, medium was removed from the cells, which were then lysed in 100 μL/well lysis buffer according to the manufacturer's protocol (R&D Systems, DYC1095, Human Phospho-EGFR DuoSet IC ELISA). Same protocol was followed to determine the total levels of phospho-EGFR by measuring the optical density of each well using a VersaMax microplate reader. Curves were then generated and IC50 values calculated.

[3] = target: ErbB2 with Exon 20 YVMA insertion (HER2-YVMA) (Homo sapiens (Human), UniProt P04626, INS775YVMA); test: Cellular phosphorylation assay, constitutive ErbB2 phosphorylation (Y1196) in engineered NIH 3T3 cells, Assay 4; type: cell-based
Procedure: Serially diluted compounds were added to the plates for 1 hour at 37° C./5% CO2. EGFR WT cells were stimulated with 100 ng/ml rEGF for an additional 10 minutes at 37° C./5% CO2. After compound incubation, medium was removed from the cells, which were then fixed in 3.7% formaldehyde in PBS at room temperature for 20 minutes. Following a wash with PBS, cells were permeabilized with 100% methanol at room temperature for 10 minutes. Cells were then washed with PBS/0.05% Tween-20 and blocked with Odyssey blocking buffer (LI-COR Biosciences) for at least 1 hour at room temperature. Antibodies to phosphorylated ErbB2 (Y1196, Cell Signaling #6942) or phosphorylated EGFR (Y1068, Cell Signaling #3777) and GAPDH (Millipore #MAB374) were added to the cells in blocking buffer containing 0.05% azide and incubated overnight at 4° C. After washing with PBS/0.05° i° Tween-20, the cells were incubated with fluorescently labeled secondary anti-rabbit antibody (LiCOR, IRDye 800CW #926-32211) and anti-mouse antibody (Molecular Probes, Alexa Fluor 680 #A21058) for 1 hour at room temperature in the dark. Cells were then washed and analyzed for fluorescence at both wavelengths using the Odyssey Infrared Imaging System (LI-COR Biosciences). Phosphorylated ErbB2 and EGFR signal was normalized to GAPDH signal to generate curves and calculate IC50 values.

[4] = target: ErbB2 insYVMA (HER2-YVMA, SEQ ID NO: 2) (Homo sapiens, UniProt P04626, INS775YVMA/P1170A); test: biochemical; settings: ErbB2 insYVMA enzyme assay
[5] = target: ErbB2 WT (Homo sapiens (Human), UniProt P04626); test: ErbB enzyme assay (CisBio HTRF KinEASE-TK), Assay 2; type: biochemical
Procedure: as §1, with “Compounds were prepared as a three-fold serial dilution in DMSO and added to the assay to give the appropriate final concentration.” left out, “reactions.” for “reactions. A 4-parameter logistic curve was fit to the POC values as a function of the concentration of compound, and the IC50 value was the point where the best-fit curve crossed 50 POC.”
as §2

Sequence of ErbB2 WT (P04626 23-1255): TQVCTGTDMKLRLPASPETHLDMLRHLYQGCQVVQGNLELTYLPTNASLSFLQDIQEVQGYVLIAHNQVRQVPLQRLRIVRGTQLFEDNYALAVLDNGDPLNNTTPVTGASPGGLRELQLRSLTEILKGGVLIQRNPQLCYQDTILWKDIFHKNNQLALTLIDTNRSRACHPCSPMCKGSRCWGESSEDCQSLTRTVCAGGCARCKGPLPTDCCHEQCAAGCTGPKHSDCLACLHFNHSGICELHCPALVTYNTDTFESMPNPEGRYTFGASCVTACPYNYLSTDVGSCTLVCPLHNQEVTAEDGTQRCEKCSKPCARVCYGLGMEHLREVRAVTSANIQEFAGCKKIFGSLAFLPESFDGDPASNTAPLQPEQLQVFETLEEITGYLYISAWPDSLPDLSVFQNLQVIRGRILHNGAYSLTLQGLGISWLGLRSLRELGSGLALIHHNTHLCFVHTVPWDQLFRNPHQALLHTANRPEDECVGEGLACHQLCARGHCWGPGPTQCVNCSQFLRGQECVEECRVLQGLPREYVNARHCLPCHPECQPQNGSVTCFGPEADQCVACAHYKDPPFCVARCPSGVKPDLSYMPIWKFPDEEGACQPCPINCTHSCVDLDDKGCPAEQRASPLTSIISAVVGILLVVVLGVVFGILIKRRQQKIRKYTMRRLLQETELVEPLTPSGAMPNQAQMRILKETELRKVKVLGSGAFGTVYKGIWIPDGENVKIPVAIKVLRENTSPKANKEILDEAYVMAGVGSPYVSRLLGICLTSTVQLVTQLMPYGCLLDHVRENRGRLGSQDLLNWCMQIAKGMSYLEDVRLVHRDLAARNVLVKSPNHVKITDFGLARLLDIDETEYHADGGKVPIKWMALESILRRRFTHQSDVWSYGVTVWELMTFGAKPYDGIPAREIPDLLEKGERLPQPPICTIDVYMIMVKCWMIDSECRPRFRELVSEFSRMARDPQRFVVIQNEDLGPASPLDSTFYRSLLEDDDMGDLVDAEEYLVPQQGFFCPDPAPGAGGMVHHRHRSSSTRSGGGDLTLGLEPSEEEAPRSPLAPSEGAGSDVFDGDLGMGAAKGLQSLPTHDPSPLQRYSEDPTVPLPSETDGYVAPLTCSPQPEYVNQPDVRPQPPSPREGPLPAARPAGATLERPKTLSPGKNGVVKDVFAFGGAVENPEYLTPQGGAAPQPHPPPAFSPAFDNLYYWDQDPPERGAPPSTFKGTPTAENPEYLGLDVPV
Sequence of EGFR (P00533 25-1210): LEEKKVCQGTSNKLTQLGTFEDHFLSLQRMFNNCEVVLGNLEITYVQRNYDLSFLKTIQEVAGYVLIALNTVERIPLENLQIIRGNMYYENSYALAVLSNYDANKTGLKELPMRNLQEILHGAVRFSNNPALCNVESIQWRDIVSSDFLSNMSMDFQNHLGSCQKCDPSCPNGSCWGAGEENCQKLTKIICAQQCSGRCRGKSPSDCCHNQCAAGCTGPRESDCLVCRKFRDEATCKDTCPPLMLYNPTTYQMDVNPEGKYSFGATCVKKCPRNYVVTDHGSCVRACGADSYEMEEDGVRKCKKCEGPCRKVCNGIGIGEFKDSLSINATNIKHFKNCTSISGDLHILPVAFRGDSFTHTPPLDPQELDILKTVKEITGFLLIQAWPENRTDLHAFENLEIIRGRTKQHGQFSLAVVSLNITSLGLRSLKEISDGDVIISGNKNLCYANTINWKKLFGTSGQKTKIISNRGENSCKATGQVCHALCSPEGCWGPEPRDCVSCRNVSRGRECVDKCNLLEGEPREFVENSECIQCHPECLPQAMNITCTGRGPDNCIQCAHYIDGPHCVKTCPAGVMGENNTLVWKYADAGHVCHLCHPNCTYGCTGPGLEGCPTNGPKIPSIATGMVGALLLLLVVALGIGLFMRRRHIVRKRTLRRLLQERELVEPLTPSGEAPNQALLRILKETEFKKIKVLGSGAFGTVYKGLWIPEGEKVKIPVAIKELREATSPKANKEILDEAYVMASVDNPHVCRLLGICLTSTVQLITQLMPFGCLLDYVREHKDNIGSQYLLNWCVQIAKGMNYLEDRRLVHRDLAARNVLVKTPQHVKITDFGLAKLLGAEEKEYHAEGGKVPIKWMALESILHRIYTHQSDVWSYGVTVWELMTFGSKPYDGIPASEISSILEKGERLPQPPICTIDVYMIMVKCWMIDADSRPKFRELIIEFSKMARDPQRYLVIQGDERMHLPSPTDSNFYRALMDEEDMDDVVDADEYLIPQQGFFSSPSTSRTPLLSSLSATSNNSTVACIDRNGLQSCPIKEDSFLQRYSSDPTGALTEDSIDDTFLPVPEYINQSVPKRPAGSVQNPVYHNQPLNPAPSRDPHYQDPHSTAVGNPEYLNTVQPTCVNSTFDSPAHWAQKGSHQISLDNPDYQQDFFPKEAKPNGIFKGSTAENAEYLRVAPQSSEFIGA
Sequence of EGFR wild type (EGFR WT) (P00533 25-1210): as above
Sequence of ErbB2 with Exon 20 YVMA insertion (HER2-YVMA) (P04626 other isoform, or with tags, fused parts or gaps ins YVMA behind 775): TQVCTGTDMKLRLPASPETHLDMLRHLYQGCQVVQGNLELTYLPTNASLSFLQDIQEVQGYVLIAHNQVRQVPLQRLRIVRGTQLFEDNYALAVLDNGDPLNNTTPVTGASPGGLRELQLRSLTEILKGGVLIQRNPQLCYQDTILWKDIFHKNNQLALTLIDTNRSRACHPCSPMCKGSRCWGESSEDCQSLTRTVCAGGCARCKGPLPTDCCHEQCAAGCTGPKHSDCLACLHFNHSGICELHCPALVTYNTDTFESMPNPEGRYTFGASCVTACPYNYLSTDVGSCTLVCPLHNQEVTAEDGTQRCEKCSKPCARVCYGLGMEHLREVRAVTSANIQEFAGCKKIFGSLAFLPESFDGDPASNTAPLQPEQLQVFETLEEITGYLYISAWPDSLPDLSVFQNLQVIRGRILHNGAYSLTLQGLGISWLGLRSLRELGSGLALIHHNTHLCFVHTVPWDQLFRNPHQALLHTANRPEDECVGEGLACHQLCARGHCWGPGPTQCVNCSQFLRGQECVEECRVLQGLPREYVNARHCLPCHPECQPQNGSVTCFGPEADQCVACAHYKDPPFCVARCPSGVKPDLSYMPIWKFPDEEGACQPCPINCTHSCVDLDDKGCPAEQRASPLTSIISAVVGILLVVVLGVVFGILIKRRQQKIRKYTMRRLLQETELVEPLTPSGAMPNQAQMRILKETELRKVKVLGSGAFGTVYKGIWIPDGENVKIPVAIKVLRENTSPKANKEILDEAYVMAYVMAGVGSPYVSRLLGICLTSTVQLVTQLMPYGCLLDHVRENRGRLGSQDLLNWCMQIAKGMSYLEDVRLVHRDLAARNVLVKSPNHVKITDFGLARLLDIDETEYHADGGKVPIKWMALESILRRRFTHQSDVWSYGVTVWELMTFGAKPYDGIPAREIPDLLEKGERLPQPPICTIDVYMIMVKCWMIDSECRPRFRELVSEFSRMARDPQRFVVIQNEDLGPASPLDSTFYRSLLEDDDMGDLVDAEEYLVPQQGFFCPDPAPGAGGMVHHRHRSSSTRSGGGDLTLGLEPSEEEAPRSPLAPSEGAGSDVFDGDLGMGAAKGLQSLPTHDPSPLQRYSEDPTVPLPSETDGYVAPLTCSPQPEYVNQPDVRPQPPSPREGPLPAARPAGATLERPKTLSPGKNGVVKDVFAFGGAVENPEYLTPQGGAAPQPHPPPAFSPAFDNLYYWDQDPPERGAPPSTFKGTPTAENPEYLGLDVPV

Row | Compound | IC50 [1] [µM] | IC50 [2] [µM] | IC50 [3] [nM] | IC50 ([4]; read-out: Assay 1 IC50) [nM] | IC50 [5] [nM] | IC50 ([4]; Assay 1 IC50 (nM)) [nM]
1 | Cc1cc(Nc2ncnc3cnc(N4CCO[C@]5(CCOC5)C4)nc23)ccc1Oc1ccc2c(c1)ncn2C [Example 357] | ≥ 10 | ≥ 5 |  |  |  | 
2 | Cc1cc(Nc2ncnc3cnc(N(C)[C@@H]4CCCOC4)nc23)ccc1Oc1ccc2c(c1)ncn2C [Example 473] | 1.53 | ≥ 5 | 5.8 |  |  | 
3 | Cc1c(Oc2ccc3c(c2)ncn3C)ccc(Nc2ncnc3cnc(N4CC[C@](C)(O)C4)nc23)c1F [Example 310] |  | ≥ 5 |  |  |  | 
4 | Cc1cc(Nc2ncnc3cnc(N4CC[C@](C)(O)C4)nc23)ccc1Oc1ccc2c(c1)ncn2C [Example 294] |  | ≥ 5 |  |  |  | 
5 | Cc1cc(Nc2ncnc3cnc(N4CC(C(F)F)C4)nc23)ccc1Oc1ccc2c(c1)ncn2C [Example 37, 6-(3-(difluoromethyl)azetidin-1-yl)-N-(3-methyl-4-((1-methyl-1H-benzo[d]imidazol-5-yl)oxy)phenyl)pyrimido[5,4-d]pyrimidin-4-amine] | ≥ 10 |  | 174 | 78.8 | 393 | 
6 | Cc1cc(Nc2ncnc3cnc(N[C@@H](C)COC(F)(F)F)nc23)ccc1Oc1ccc2c(c1)ncn2C [Example 63, (S)—N8-(3-methyl-4-((1-methyl-1H-benzo[d]imidazol-5-yl)oxy)phenyl)-N2-(1-(trifluoromethoxy)propan-2-yl)pyrimido[5,4-d]pyrimidine-2,8-diamine] | ≥ 10 |  | 191 | 195 | 862 | 
7 | Cc1cc(Nc2ncnc3cnc(OCC(F)F)nc23)ccc1Oc1ccc2c(c1)ncn2C [Example 177, 6-(2,2-difluoroethoxy)-N-(3-methyl-4-((1-methyl-1H-benzo[d]imidazol-5-yl)oxy)phenyl)pyrimido[5,4-d]pyrimidin-4-amine] | ≥ 10 |  | 109 | 53.2 | 150 | 
8 | Cc1cc(Nc2ncnc3cnc(N4CC[C@H](C)C4=O)nc23)ccc1Oc1ccc2c(c1)ncn2C [Example 250] | ≥ 10 |  | 54.6 | 46.3 | 67.6 | 
9 | Cc1cc(Nc2ncnc3cnc(N4CCC(S(C)(=O)=O)CC4)nc23)ccc1Oc1ccc2c(c1)ncn2C [Example 224] | ≥ 10 | ≥ 5 |  |  |  | 
10 | Cc1cc(Nc2ncnc3cnc(N4CCC[C@@H]4C(F)(F)F)nc23)ccc1Oc1ccc2c(c1)ncn2C [Example 229] | ≥ 10 |  | 165 | 171 | 376 | 
11 | Cc1cc(Nc2ncnc3cnc(N4CC5CC(C5)C4)nc23)ccc1Oc1ccc2c(c1)ncn2C [Example 39, 6-(3-azabicyclo[3.1.1]heptan-3-yl)-N-(3-methyl-4-((1-methyl-1H-benzo[d]imidazol-5-yl)oxy)phenyl)pyrimido[5,4-d]pyrimidin-4-amine] | ≥ 10 |  | 292 | 199 | 358 | 
12 | Cc1cc(Nc2ncnc3cnc(N4CC(C)(O)C4)nc23)ccc1Oc1ccc2c(c1)ncn2C [Example 246] | ≥ 10 |  | 103 | 28.2 | 70.8 | 
13 | Cc1cc(Nc2ncnc3cnc(N4C[C@H](C)O[C@@H](C)C4)nc23)ccc1Oc1ccc2c(c1)ncn2C [Example 72, 6-((2S,6S)-2,6-dimethylmorpholino)-N-(3-methyl-4-((1-methyl-1H-benzo[d]imidazol-5-yl)oxy)phenyl)pyrimido[5,4-d]pyrimidin-4-amine] | ≥ 10 |  | 76.6 |  | 83.9 | 69.6
14 | Cc1cc(Nc2ncnc3cnc(N4CCC4C(F)(F)F)nc23)ccc1Oc1ccc2c(c1)ncn2C (centres unmarked) [Example 238] | ≥ 10 |  | 163 | 99.3 | 227 | 
15 | Cc1cc(Nc2ncnc3cnc(N4CCC5COCC54)nc23)ccc1Oc1ccc2c(c1)ncn2C (centres unmarked) [Example 472] |  | ≥ 5 |  |  |  | 
16 | CCCOc1ncc2ncnc(Nc3ccc(Oc4ccc5c(c4)ncn5C)c(C)c3)c2n1 [Example 221] | ≥ 10 |  | 548 | 122 | 334 | 

— patent US11834453B2, “Substituted pyrimido[5,4-d]pyrimidines as HER2 inhibitors” (Array BioPharma Inc., priority 2020, dated 2023)
